Patent US20180140578A1, “METHODS AND COMPOSITIONS FOR THE DIAGNOSIS AND SELECTIVE TREATMENT OF CANCER” (Board of Regents of the University of Texas System, priority 2016, published 2018)
Like-named read-outs stand apart in the source and are kept apart here.

Tests used:
Assay in all cases: IC50 assay, NSCLC cell lines (Cell Titer Glo, total ATP)
Type in all cases: cell-based
Conditions in all cases: Homo sapiens
H1650 = tested on: H1650
Method: (§1) Cells were plated at ˜15% confluence in a media comprising 5% concentration of fetal bovine serum supplemented with RPMI, which included 2 mM L-Glutamine in a 96 well dish. […] Following three days of incubation in a 5% CO2 incubator, the total ATP in each well was quantified using Cell Titer Glo (Promega). […] The solid lines represent the medians.

H1648 = tested on: H1648
Method: as §1

H1395 = tested on: H1395
Method: as §1

HCC2450 = tested on: HCC2450
Method: as §1

HCC1438 = tested on: HCC1438
Method: as §1

H2887 = tested on: H2887
Method: as §1

HCC44 = tested on: HCC44
Method: as §1

H2444 = tested on: H2444
Method: as §1

H2250 = tested on: H2250
Method: as §1

H1819 = tested on: H1819
Method: as §1

H1581 = tested on: H1581
Method: as §1

H2126 = tested on: H2126
Method: as §1

H522 = tested on: H522
Method: as §1

HCC4017 = tested on: HCC4017
Method: as §1

H2228 = tested on: H2228
Method: as §1

H1944 = tested on: H1944
Method: as §1

WI38 = tested on: WI38
Method: as §1

H820 = tested on: H820
Method: as §1

HCC2279 = tested on: HCC2279
Method: as §1

H2030 = tested on: H2030
Method: as §1

HCC78 = tested on: HCC78
Method: as §1

H1993 = tested on: H1993
Method: as §1

H2347 = tested on: H2347
Method: as §1

H292 = tested on: H292
Method: as §1

H2342 = tested on: H2342
Method: as §1

LC-2/AD = tested on: LC-2/AD
Method: as §1

HCC4006 = tested on: HCC4006
Method: as §1

HOP62 = tested on: HOP62
Method: as §1

[1] = read-out: Indisulam IC50 (log 10) (converted), U2AF1 WT
[2] = read-out: Indisulam IC50, U2AF1 WT
[3] = read-out: Indisulam IC50 (log 10) (converted), U2AF1 S34F
[4] = read-out: Indisulam IC50, U2AF1 S34F

`NS(=O)(=O)c1ccc(S(=O)(=O)Nc2cccc3c(Cl)c[nH]c23)cc1` [Indisulam, indisulam] was tested, and the IC50 (H1650; NCI-H1650, read-out: Indisulam IC50 (log 10) (converted), U2AF1 WT) was 31.9 µM, the IC50 (H1650; NCI-H1650, read-out: Indisulam IC50, U2AF1 WT) was 31.9 µM and the IC50 (H1648; NCI-H1648, read-out: Indisulam IC50 (log 10) (converted), U2AF1 WT) was 16.8 µM. The IC50 (H1648; NCI-H1648, read-out: Indisulam IC50, U2AF1 WT) was 16.8 µM, the IC50 (H1395; NCI-H1395, read-out: Indisulam IC50 (log 10) (converted), U2AF1 WT) was 10.9 µM and the IC50 (H1395; NCI-H1395, read-out: Indisulam IC50, U2AF1 WT) was 10.9 µM. The IC50 (HCC2450; [1]) was 135 µM, the IC50 (HCC2450; [2]) was 135 µM and the IC50 (HCC1438; [1]) was 22.7 µM. For the same compound, the IC50 (HCC1438; [2]) was 22.7 µM, the IC50 (H2887; NCI-H2887, read-out: Indisulam IC50 (log 10) (converted), U2AF1 WT) was 9.63 µM and the IC50 (H2887; NCI-H2887, read-out: Indisulam IC50, U2AF1 WT) was 9.63 µM. The IC50 (HCC44; [1]) was 23 µM, the IC50 (HCC44; [2]) was 23 µM and the IC50 (H2444; NCI-H2444, read-out: Indisulam IC50 (log 10) (converted), U2AF1 WT) was 14.1 µM. The IC50 (H2444; NCI-H2444, read-out: Indisulam IC50, U2AF1 WT) was 14.1 µM, the IC50 (H2250; [1]) was no less than 500 µM and the IC50 (H2250; [2]) was 1180 µM. The IC50 (H1819; NCI-H1819, read-out: Indisulam IC50 (log 10) (converted), U2AF1 WT) was 9.6 µM, the IC50 (H1819; NCI-H1819, read-out: Indisulam IC50, U2AF1 WT) was 9.6 µM and the IC50 (H1581; NCI-H1581, read-out: Indisulam IC50 (log 10) (converted), U2AF1 WT) was 19.2 µM. For the same compound, the IC50 (H1581; NCI-H1581, read-out: Indisulam IC50, U2AF1 WT) was 19.2 µM, the IC50 (H2126; NCI-H2126, read-out: Indisulam IC50 (log 10) (converted), U2AF1 WT) was 20.5 µM and the IC50 (H2126; NCI-H2126, read-out: Indisulam IC50, U2AF1 WT) was 20.5 µM. The IC50 (H522; NCI-H522, read-out: Indisulam IC50 (log 10) (converted), U2AF1 WT) was 1.22 µM, the IC50 (H522; NCI-H522, read-out: Indisulam IC50, U2AF1 WT) was 1.22 µM and the IC50 (HCC4017; [1]) was 12.6 µM. The IC50 (HCC4017; [2]) was 12.6 µM, the IC50 (H2228; NCI-H2228, read-out: Indisulam IC50 (log 10) (converted), U2AF1 WT) was 1.26 µM and the IC50 (H2228; NCI-H2228, read-out: Indisulam IC50, U2AF1 WT) was 1.26 µM. The IC50 (H1944; NCI-H1944, read-out: Indisulam IC50 (log 10) (converted), U2AF1 WT) was 163 µM, the IC50 (H1944; NCI-H1944, read-out: Indisulam IC50, U2AF1 WT) was 163 µM and the IC50 (WI38; WI-38, read-out: Indisulam IC50 (log 10) (converted), U2AF1 WT) was 10 µM. The IC50 (WI38; WI-38, read-out: Indisulam IC50, U2AF1 WT) was 10 µM, the IC50 (H820; NCI-H820, read-out: Indisulam IC50 (log 10) (converted), U2AF1 WT) was 5.17 µM and the IC50 (H820; NCI-H820, read-out: Indisulam IC50, U2AF1 WT) was 5.17 µM. The IC50 (HCC2279; [1]) was 5.68 µM, the IC50 (HCC2279; [2]) was 5.68 µM and the IC50 (H2030; NCI-H2030, read-out: Indisulam IC50 (log 10) (converted), U2AF1 WT) was 79.1 µM. For the same compound, the IC50 (H2030; NCI-H2030, read-out: Indisulam IC50, U2AF1 WT) was 79.1 µM, the IC50 (HCC78; [3]) was 1.15 µM and the IC50 (HCC78; [4]) was 1.15 µM. For the same compound, the IC50 (H1993; NCI-H1993, read-out: Indisulam IC50 (log 10) (converted), U2AF1 WT) was 1.42 µM, the IC50 (H1993; NCI-H1993, read-out: Indisulam IC50, U2AF1 WT) was 1.42 µM and the IC50 (H2347; NCI-H2347, read-out: Indisulam IC50 (log 10) (converted), U2AF1 WT) was 13.5 µM. It also gave an IC50 (H2347; NCI-H2347, read-out: Indisulam IC50, U2AF1 WT) of 13.5 µM, an IC50 (H292; NCI-H292, read-out: Indisulam IC50 (log 10) (converted), U2AF1 WT) of 1.12 µM and an IC50 (H292; NCI-H292, read-out: Indisulam IC50, U2AF1 WT) of 1.12 µM. The IC50 (H2342; NCI-H2342, read-out: Indisulam IC50 (log 10) (converted), U2AF1 WT) was 58.6 µM, the IC50 (H2342; NCI-H2342, read-out: Indisulam IC50, U2AF1 WT) was 58.6 µM and the IC50 (LC-2/AD; [3]) was 0.376 µM. For the same compound, the IC50 (LC-2/AD; [4]) was 0.376 µM, the IC50 (HCC4006; [1]) was 0.735 µM and the IC50 (HCC4006; [2]) was 0.735 µM. It also gave an IC50 (HOP62; HOP-62, read-out: Indisulam IC50 (log 10) (converted), U2AF1 WT) of 6.08 µM and an IC50 (HOP62; HOP-62, read-out: Indisulam IC50, U2AF1 WT) of 6.08 µM.
